# Results as given in publication PMC13168289, “Potent acridone antimalarial against all three life stages of Plasmodium” (Nature Communications, 2026).
# Values joined by “and” are separate entries in the source; they are usually repeats but may differ in a detail not shown here. Equal entries are not always repeated. Where two headings read alike, the source gives them in different places.
# How the values were obtained:
# [1] = system: P. falciparum D6, Dd2, Tm90-C2B, Dd2-D1^I22L, D10yDHODH; assay: microbe, parasite or virus in culture; format: cell-based, Plasmodium falciparum
# Experimental: (§1) Drug susceptibility assays against P. falciparum strains were performed using a SYBR Green based assay. D6 and Dd2 were obtained from MR4. Tm90-C2B was obtained from WRAIR. Dd2-D1^I22L and ELQ-300 were obtained from VAPORHCS. D10yDHODH was obtained as a courtesy from Dr. Akhil Vaidya at Drexel University. P. yoelii ATV^r and ELQ-300^r clones were obtained from VAPORHCS.
# [2] = system: P. yoelii wild type, ATV^r and ELQ-300^r clones; assay: 4-day suppression model with ATV- and ELQ-300-resistant clones; format: in vivo, P. yoelii in CF1 mice; details: (95% CI)
# Source text: Animals were housed at the VAPORHCS in Thoren Maxi-Miser microisolator cages (78 sq. in. floor space) with a maximum density of five females or four males per cage. Cages were maintained on a 12-h light/dark cycle and provided with autoclaved nesting materials (nestlets) for environmental enrichment. All mice had ad libitum access to food and water. Four- to five-week-old female and male outbred CF1 mice (Charles River Laboratories, Raleigh, NC, USA) were randomly assigned to treatment and control groups using a simple randomization procedure (e.g., computer-generated random numbers) to ensure balanced distribution of baseline body weights and starting parasitemia levels across all cohorts. Groups of four mice (n = 4, mean body weight of each group was ~30 g) were infected intravenously with 3.5 × 10^4 P. yoelii (Kenya strain, MRA-428) from a donor animal. Drug administration commenced the day after the animals were inoculated (Day 1). The test drug or the drug combination was dissolved in PEG-400 and administered by oral gavage once daily for 4 successive days in the 4-day suppression model, but only once on Day 1 in the single-dose cure model. Blood was collected via the tail vein with the aid of a syringe needle on Day 5 and then at weekly intervals through Day 28. Blood films were Giemsa-stained and examined microscopically to determine the level of parasitemia. All mice were observed daily to assess clinical signs. Animals with observable parasitemia following the experiments were euthanized; animals cleared of parasitemia from their bloodstream were observed daily with assessment of parasitemia performed weekly until Day 28, at which point, the animal(s) were scored as cured of the infection and then humanely euthanized. All treated mice with a negative smear on Day 28 were considered cured (100% protection).
# as §1
# [3] = system: P. falciparum mutant T111 lines; assay: drug susceptibility of T111-selected cyt b mutant lines; format: cell-based, Plasmodium falciparum
# Experimental: DNA extractions were performed on clonal parasites using the QIAamp DNA extraction kit (QIAGEN Inc, Valencia, CA) or ZYMO Quick gDNA Miniprep kit (Zymo Research Corp, Irvine, CA). For sequencing of the open reading frame of pfcytb, PCR was performed with genomic DNA using forward and reverse flanking primers for cyt b primer 1: 5’-[…]-3’ and primer 2: 5’-[…]-3’. PCR products were subjected to enzymatic cleanup with ExoSAP-IT (Thermo Fisher Scientific) and sent for Sanger sequencing (Eurofins Genomics, Louisville, KY) with PCR primer 2 paired with an internal forward primer: 5’-[…]-3’ and an internal reverse primer: 5’-[…]-3’. Sequences were assembled using 4Peaks software (Nucleobytes, Amsterdam, Netherlands) and aligned with Clustal Omega (EMBL-EBI). For sequencing of the open reading frame of pfdhodh, PCR was performed with genomic DNA using forward primer: 5’-[…]-3’ and reverse primer: 5’-[…]-3’. PCR products were prepared for Sanger sequencing and analyzed as described above, except using two forward primers: 5’-[…]-3’ and 5’-[…]-3’ and with two reverse primers: 5’-[…]-3’ and 5’-[…]-3’.
# as §1
# [4] = set-up: method as in reviewer #3 remark; details: in humans; ref reviewer #3 remark; cited from earlier work
# [5] = system: P. cynomolgi hypnozoites and schizonts; assay: in vitro liver-stage P. cynomolgi assay in primary rhesus hepatocytes; format: cell-based, Plasmodium cynomolgi
# Experimental: The liver-stage P. cynomolgi assay was designed to identify anti-hypnozoite drugs utilizing a 384-well in vitro culture system[31],[37]. Briefly, cryopreserved primary simian hepatocytes (donor lots XGB, OQB, and QHO: BioIVT, Inc.) were seeded in collagen-coated 384-well plates and infected with P. cynomolgi bastianellii (B strain) sporozoites dissected from infected Anopheles dirus mosquitoes. Test compounds were solubilized in 100% DMSO and serially diluted 2-fold to generate up to a 12-point dose-response curve, maintaining a final DMSO concentration of 0.1% across all wells. Two distinct treatment modes were evaluated. For the prophylactic assay, to assess the prevention of infection, compound exposure began 1-hour post-infection with daily media changes on Days 1 and 2. For the radical cure assay, to assess activity against established liver forms, drugs were administered daily from Day 4 through Day 7 post-infection. […] For readout on Day 8, plates were fixed and stained via immunofluorescence to visualize parasite forms (hypnozoites and schizonts) and hepatocyte nuclei, and images were acquired using an Operetta CLS high-content imaging system (PerkinElmer). Host hepatocyte viability was measured in parallel to determine compound toxicity. Parasite forms were automatically quantified using Harmony 4.9 software, and percent inhibition and toxicity were calculated relative to in-plate DMSO vehicle controls. IC50 and CC50 (half-maximal cytotoxic concentrations) were determined by fitting dose-response data to a four-parameter logistic (variable slope) model using a custom Python script incorporating a grid search algorithm.
# [6] = system: P. falciparum NF54 oocyst development in mosquitoes; assay: standard membrane feeding assay (SMFA); format: in vivo, P. falciparum in Anopheles stephensi; details: drug in blood meal
# Experimental: The SMFA assay was performed using P. falciparum NF54 gametocytes produced in vitro[35]. P. falciparum NF54 gametocytes were grown in human blood cultured in RPMI 1640 GlutaMax medium (Gibco) supplemented with 25 mM HEPES, hypoxanthine, and human serum. De-identified human blood and serum were obtained from the Australian Red Cross Blood Service. Mature (stage V) gametocytes were quantified in Giemsa-stained blood smears. Immediately prior to infection, a feeding mixture comprising 45% human serum and 55% human blood containing 0.15% stage V gametocytes and the desired concentration of drug or vehicle control, was prepared and maintained at 37 °C. Adult female Anopheles stephensi (MR4) mosquitoes reared under the standard insectary conditions[79] were placed in mesh-topped cups and allowed to feed on the gametocyte mixtures in prewarmed glass feeders wrapped with parafilm. […] Mosquito midguts were dissected 7 days after infection, stained in 0.2% mercurochrome, and oocysts were counted using a light microscope.
smiles,measurement,setting,value
"O=C1C(O)=C([C@H]2CC[C@H](c3ccc(Cl)cc3)CC2)C(=O)c2ccccc21 [ATV, atovaquone]",IC50,"[1]; Plasmodium falciparum, read-out: in vitro IC50 vs P. falciparum, D6",0.073 ± 0.01 nM
same,IC50,"[1]; Plasmodium falciparum, read-out: in vitro IC50 vs P. falciparum, D10yDHODH",> 2500 nM
same,IC50,"[1]; Plasmodium falciparum, read-out: in vitro IC50 vs P. falciparum, Dd2",0.13 ± 0.012 nM
same,IC50,"[1]; Plasmodium falciparum, read-out: in vitro IC50 vs P. falciparum, Dd2-D1^I22L (ELQ-300-resistant)",0.007 ± 0.0025 nM
same,IC50,"[1]; Plasmodium falciparum, read-out: in vitro IC50 vs P. falciparum, Tm90-C2B (cyt b Y268S, ATV-resistant)",8538 ± 65 nM
same,ED50,[2]; P. yoelii ATVrY268S,15.3 (9.9–24) mg/kg/day
same,ED50,[2]; P. yoelii ELQ-300rI22L,0.068 (0.053–0.087) mg/kg/day
same,ED50,[2]; P. yoelii wild type,0.064 (0.049–0.085) mg/kg/day
same,IC50,"[3]; Plasmodium falciparum, DD2, read-out: inhibition IC50 vs P. falciparum, Dd2",0.44 ± 0.052 nM
same,IC50,"[3]; Plasmodium falciparum, DD2, read-out: inhibition IC50 vs P. falciparum, Dd2-A^131S-140I-259L",4.7 ± 0.44 nM
same,IC50,"[3]; Plasmodium falciparum, DD2, read-out: inhibition IC50 vs P. falciparum, Dd2-A^131S-140I-259L-264L",15 ± 2 nM
same,IC50,"[3]; Plasmodium falciparum, DD2, read-out: inhibition IC50 vs P. falciparum, Dd2-B^87V-131S-140I-259L",10 ± 1.4 nM
same,IC50,"[3]; Plasmodium falciparum, DD2, read-out: inhibition IC50 vs P. falciparum, Dd2-B^131S-140I-259L-264L",11 ± 1.8 nM
same,IC50,"[3]; Plasmodium falciparum, DD2, read-out: inhibition IC50 vs P. falciparum, Dd2-C0^119L-131S-259L (pfdhodh mutation)",15 ± 0.46 nM
same,IC50,"[3]; Plasmodium falciparum, DD2, read-out: inhibition IC50 vs P. falciparum, Dd2-C1^131S-140I-259L (pfdhodh mutation)",25 ± 7.2 nM
same,IC50,"[3]; Plasmodium falciparum, DD2, read-out: inhibition IC50 vs P. falciparum, Dd2^131S",0.34 ± 0.049 nM
same,IC50,"[3]; Plasmodium falciparum, DD2, read-out: inhibition IC50 vs P. falciparum, Dd2^131S-259L",1.5 ± 0.17 nM
same,IC50,"[3]; Plasmodium falciparum, DD2, read-out: inhibition IC50 vs P. falciparum, Dd2^259L",6.6 ± 1.9 nM
same,T1/2,[4],120 to 140 h
same,IC50,"[5]; Plasmodium cynomolgi, Hepatocyte, in Macaca mulatta, prophylactic mode, hypnozoite, read-out: inhibition IC50",> 1200 nM
same,IC50,"[5]; Plasmodium cynomolgi, Hepatocyte, in Macaca mulatta, prophylactic mode, schizont, read-out: inhibition IC50",9.3 nM
same,IC50,"[5]; Plasmodium cynomolgi, Hepatocyte, in Macaca mulatta, radical cure mode, hypnozoite, read-out: inhibition IC50",2460 nM
same,IC50,"[5]; Plasmodium cynomolgi, Hepatocyte, in Macaca mulatta, radical cure mode, schizont, read-out: inhibition IC50",2250 nM
same,IC50,"[5]; Plasmodium cynomolgi, Hepatocyte, in Macaca mulatta, summary in response to reviewers, read-out: IC50 values against hypnozoites",> 2000 nM
O=c1c2ccc(Oc3ccc(OC(F)(F)F)cc3)cc2[nH]c2cc(Cl)cc(F)c12 [T111],IC50,"[1]; D6, read-out: in vitro IC50 vs P. falciparum",0.028 ± 0.00036 nM
same,IC50,"[1]; D10yDHODH, read-out: in vitro IC50 vs P. falciparum",> 2500 nM
same,IC50,"[1]; Dd2, read-out: in vitro IC50 vs P. falciparum",0.042 ± 0.0042 nM
same,IC50,"[1]; Tm90-C2B (cyt b Y268S, ATV-resistant), read-out: in vitro IC50 vs P. falciparum",4 ± 0.076 nM
same,ED50,[2]; P. yoelii ATVrY268S,0.31 (0.29–0.34) mg/kg/day and 0.31 mg/kg/day
same,ED50,[2]; P. yoelii ELQ-300rI22L,0.25 (0.21–0.30) mg/kg/day and 0.25 mg/kg/day
same,ED50,[2]; P. yoelii wild type,0.24 (0.20–0.29) mg/kg/day and 0.24 mg/kg/day
same,IC50,"[3]; Dd2-A^131S-140I-259L-264L, read-out: inhibition IC50 vs P. falciparum",98 ± 12 nM
same,IC50,"[3]; Dd2-A^131S-140I-259L, read-out: inhibition IC50 vs P. falciparum",74 ± 5.1 nM
same,IC50,"[3]; Dd2-B^87V-131S-140I-259L, read-out: inhibition IC50 vs P. falciparum",129 ± 6.3 nM
same,IC50,"[3]; Dd2-B^131S-140I-259L-264L, read-out: inhibition IC50 vs P. falciparum",114 ± 13 nM
same,IC50,"[3]; Dd2-C0^119L-131S-259L (pfdhodh mutation), read-out: inhibition IC50 vs P. falciparum",144 ± 12 nM
same,IC50,"[3]; Dd2-C1^131S-140I-259L (pfdhodh mutation), read-out: inhibition IC50 vs P. falciparum",223 ± 36 nM
same,IC50,"[3]; Dd2, read-out: inhibition IC50 vs P. falciparum",0.15 ± 0.023 nM
same,IC50,"[3]; Dd2^131S-259L, read-out: inhibition IC50 vs P. falciparum",12 ± 2.5 nM
same,IC50,"[3]; Dd2^131S, read-out: inhibition IC50 vs P. falciparum",0.78 ± 0.081 nM
same,IC50,"[3]; Dd2^259L, read-out: inhibition IC50 vs P. falciparum",4.4 ± 0.71 nM
same,IC50,"[5]; prophylactic mode, hypnozoite, read-out: inhibition IC50",93 nM
same,IC50,"[5]; prophylactic mode, schizont, read-out: inhibition IC50",18 nM
same,residual population of hypnozoites,"[5]; radical cure mode, highest concentrations tested",10-20%
same,IC50,"[5]; radical cure mode, hypnozoite, read-out: inhibition IC50",500 nM
same,IC50,"[5]; radical cure mode, schizont, read-out: inhibition IC50",280 nM
same,concentration that eliminated oocyst formation,[6],4.0 ng/mL and 9.5 nM
